Assay results published in publication PMC5428354, “Screening of a natural compound library identifies emodin, a natural compound from Rheum palmatum Linn that inhibits DPP4” (PeerJ, 2017).
Values joined by “and” are separate entries in the source; they are usually repeats but may differ in a detail not shown here. Equal values may be shown once. Read-outs that look alike come from different tables or passages of the source.

Legend:
Assay type in all cases: biochemical
[1] = molecular target: T1, DPP9 (Homo sapiens, UniProt Q86TI2); assay: DPP9 activity assay (BPS Bioscience kit); settings: 100 µM, Well #1-#3; for DPP9 activity: DMSO = Ctrl;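 on DPP9 assay, Emission (450 nm): 20 ng DPP9 per 100 µl reaction with DPP substrate 1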
T1 construct: purchased BPS Bioscience 800209

[2] = molecular target: DPP4 (Homo sapiens, UniProt P27487); assay: DPP4 activity assay (DPP4 inhibitor screening assay kit, Cayman); parameters: purchased Cayman Chemical, Ann Arbor, MI, USA; settings: for remaining activity at 10 µM: 0.5 h; for IC50: in vitro, read-out: IC50 of DPP4 Inhibition; for IC50 / Ki: means ± SE; for Ki: DPP4;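 on all read-outs here: fluorescence read at excitation 360 nm and emission 460 nm after the enzyme reaction ran 30 min at 37 °C in a 96-well plate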
[3] = molecular target: DPP8 (Homo sapiens, UniProt Q6V1X1); assay: DPP8 activity assay (BPS Bioscience kit); settings: for DPP8 assay, Emission (450 nm) / DPP8 activity: 100 µM, Exp #1-#5; for DPP8 activity: DMSO = Ctrl;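 on DPP8 assay, Emission (450 nm): fluorescence read with excitation at 365 nm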
Description: A DPP8 assay kit was purchased from BPS Bioscience (Cat# 800208), and the assay protocol was followed to test for inhibitory activity on DPP8. Briefly, DPP substrate 1 was diluted to make a 100 µM stock solution, and DPP8 protein was diluted in DPP assay buffer to 2 ng/µl (20 ng/reaction). For the tested compounds, 10 µl of diluted DPP8 protein, 5 µl of diluted DPP substrate 1, 84 µl of DPP assay buffer and 1 µl of inhibitor were addedinto the assay system for a total volume of 100 µl. The reaction mixtures were prepared in duplicate on a 96-well plate and incubated at room temperature for 10 min. […]

[4] = 10 µM, control mean 100.0, Figure 1A raw data, read-out: DPP4 activity in library screen, Exp 1
[5] = 10 µM, control mean 100.0, Figure 1A raw data, read-out: DPP4 activity in library screen, Exp 2
[6] = 10 µM, control mean 100.0, Figure 1A raw data, read-out: DPP4 activity in library screen, Exp 3
[7] = 10 µM, control mean 100.0, mean of Exp 1-3, read-out: DPP4 activity in library screen, Mean
[8] = 10 µM, control mean 100.0, Figure 1A raw data

Sequence of DPP4 (P27487 whole entry): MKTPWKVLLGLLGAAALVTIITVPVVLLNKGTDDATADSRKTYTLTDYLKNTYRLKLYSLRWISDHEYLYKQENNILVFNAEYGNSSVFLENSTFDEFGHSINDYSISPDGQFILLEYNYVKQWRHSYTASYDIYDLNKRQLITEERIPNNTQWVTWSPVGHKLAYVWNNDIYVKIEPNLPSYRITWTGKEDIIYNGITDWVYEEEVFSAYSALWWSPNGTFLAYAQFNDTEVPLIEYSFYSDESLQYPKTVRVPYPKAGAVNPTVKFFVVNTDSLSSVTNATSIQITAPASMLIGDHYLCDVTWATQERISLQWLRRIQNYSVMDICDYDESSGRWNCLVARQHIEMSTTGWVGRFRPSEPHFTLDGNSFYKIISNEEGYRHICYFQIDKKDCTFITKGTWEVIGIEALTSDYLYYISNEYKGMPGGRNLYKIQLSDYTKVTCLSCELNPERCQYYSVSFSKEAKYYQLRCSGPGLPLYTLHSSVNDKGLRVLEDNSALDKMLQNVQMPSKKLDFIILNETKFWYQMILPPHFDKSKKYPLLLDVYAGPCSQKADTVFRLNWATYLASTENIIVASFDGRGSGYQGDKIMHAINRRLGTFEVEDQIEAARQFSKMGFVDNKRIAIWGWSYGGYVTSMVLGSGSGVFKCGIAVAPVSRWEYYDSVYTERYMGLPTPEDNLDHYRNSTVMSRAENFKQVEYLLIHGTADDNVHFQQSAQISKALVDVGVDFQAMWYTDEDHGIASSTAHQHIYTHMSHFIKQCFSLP
Sequence of DPP8 (Q6V1X1 whole entry): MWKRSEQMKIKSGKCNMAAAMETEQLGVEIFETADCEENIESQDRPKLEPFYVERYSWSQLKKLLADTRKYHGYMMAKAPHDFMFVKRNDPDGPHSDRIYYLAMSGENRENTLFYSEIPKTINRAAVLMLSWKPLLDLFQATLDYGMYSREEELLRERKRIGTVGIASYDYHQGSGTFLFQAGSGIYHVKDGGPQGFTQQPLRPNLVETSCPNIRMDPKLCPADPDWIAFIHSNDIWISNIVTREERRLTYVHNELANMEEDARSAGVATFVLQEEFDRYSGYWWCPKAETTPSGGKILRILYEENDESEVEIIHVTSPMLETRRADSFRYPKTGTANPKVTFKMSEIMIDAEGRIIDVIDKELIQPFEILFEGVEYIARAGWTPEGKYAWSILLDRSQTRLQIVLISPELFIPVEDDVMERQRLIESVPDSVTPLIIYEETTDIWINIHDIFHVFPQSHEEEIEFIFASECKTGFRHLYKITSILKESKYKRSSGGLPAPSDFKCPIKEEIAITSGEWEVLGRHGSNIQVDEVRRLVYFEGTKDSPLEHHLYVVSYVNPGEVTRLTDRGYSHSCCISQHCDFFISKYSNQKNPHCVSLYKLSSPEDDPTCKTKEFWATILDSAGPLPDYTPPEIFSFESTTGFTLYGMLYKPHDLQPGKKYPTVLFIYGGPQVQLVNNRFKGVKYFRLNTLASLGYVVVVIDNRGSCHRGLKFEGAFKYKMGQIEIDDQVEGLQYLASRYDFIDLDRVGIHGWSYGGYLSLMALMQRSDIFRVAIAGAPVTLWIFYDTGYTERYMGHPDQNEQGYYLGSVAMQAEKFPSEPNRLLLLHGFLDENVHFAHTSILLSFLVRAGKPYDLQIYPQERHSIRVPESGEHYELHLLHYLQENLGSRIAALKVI
T1 sequence (Q86TI2 whole entry): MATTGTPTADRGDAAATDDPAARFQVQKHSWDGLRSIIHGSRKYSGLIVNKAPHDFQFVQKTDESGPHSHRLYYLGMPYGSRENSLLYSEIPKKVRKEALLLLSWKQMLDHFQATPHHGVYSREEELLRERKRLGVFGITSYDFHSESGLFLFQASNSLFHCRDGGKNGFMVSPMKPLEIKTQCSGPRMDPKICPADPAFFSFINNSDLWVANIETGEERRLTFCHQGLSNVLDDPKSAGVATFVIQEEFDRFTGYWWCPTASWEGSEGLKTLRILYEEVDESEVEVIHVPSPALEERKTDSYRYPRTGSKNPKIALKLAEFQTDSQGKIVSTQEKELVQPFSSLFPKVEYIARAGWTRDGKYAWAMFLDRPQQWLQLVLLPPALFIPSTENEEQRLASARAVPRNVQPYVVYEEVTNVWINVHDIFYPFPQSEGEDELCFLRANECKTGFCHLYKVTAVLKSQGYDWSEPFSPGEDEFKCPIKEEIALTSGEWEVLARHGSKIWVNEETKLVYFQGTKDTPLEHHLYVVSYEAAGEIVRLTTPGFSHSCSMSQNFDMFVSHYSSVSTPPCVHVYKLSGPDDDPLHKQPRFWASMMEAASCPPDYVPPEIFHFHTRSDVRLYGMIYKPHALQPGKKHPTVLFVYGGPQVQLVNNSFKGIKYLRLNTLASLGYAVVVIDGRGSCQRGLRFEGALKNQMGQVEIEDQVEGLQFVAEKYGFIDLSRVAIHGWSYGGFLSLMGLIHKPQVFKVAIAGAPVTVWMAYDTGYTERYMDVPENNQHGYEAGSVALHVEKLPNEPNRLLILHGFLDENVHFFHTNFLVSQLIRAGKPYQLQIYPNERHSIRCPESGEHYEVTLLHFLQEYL

SMILES	DPP9 assay, Emission (450 nm) [1]	DPP9 activity [1]	remaining activity at 10 µM [2, 4]	remaining activity at 10 µM [2, 5]	remaining activity at 10 µM [2, 6]	remaining activity at 10 µM [2, 7]	IC50 [2]	DPP8 assay, Emission (450 nm) [3]	DPP8 activity [3]	Ki [2]	IC50 [3]	activity against DPP8 ([3]; tested at 100 µM)	DPP4 activity in library screen, Exp 1 [2, 8]	DPP4 activity in library screen, Exp 2 [2, 8]	DPP4 activity in library screen, Exp 3 [2, 8]	DPP4 activity in library screen, Mean ([2]; 10 µM, control mean 100.0, mean of Exp 1-3)
Cc1cc(O)c2c(c1)C(=O)c1cccc(O)c1C2=O [Chrysophanol]	43157 and 48875 and 45154	88.6 % of Ctrl and 100.3 % of Ctrl and 92.7 % of Ctrl	64.4%	60%	75%	66.5%	> 100 µM	27057 and 31330 and 23865 and 45793 and 40995	77.8 % of Ctrl and 97.3 % of Ctrl and 112.7 % of Ctrl and 85.8 % of Ctrl and 86.9 % of Ctrl							
COc1cc(O)c2c(c1)C(=O)c1cc(C)cc(O)c1C2=O [Rheochrysidin]	49845 and 45873 and 51642	102.3 % of Ctrl and 94.2 % of Ctrl and 106.0 % of Ctrl	44.7%	52.2%	53.9%	50.3%			78.2 % of Ctrl and 100.6 % of Ctrl and 89.5 % of Ctrl and 95.0 % of Ctrl and 106.4 % of Ctrl							
O=C(O)c1cc(O)c2c(c1)C(=O)c1cccc(O)c1C2=O [Rhein]	41706 and 44766 and 43536	85.6 % of Ctrl and 91.9 % of Ctrl and 89.4 % of Ctrl					23.1 ± 3.57 µM		54.9 % of Ctrl and 47.9 % of Ctrl and 41.4 % of Ctrl and 44.7 % of Ctrl and 72.6 % of Ctrl	3.42 ± 0.53 µM	> 100 µM	very weak activity				
O=C1c2cccc(O)c2C(=O)c2c(O)cc(CO)cc21 [Aloe-emodin]	45255 and 48696 and 44751	92.9 % of Ctrl and 100.0 % of Ctrl and 91.9 % of Ctrl					16 ± 4.24 µM	28333 and 31255 and 28705 and 40933 and 31387	59.6 % of Ctrl and 101.9 % of Ctrl and 112.4 % of Ctrl and 103.3 % of Ctrl and 77.7 % of Ctrl	2.37 ± 0.62 µM						
C[C@@H]1O[C@@H](O)[C@H](O)[C@H](O)[C@H]1O.O [L-(+)-Rhamnose Monohydrate]													92.8	91.1	93	92.3
